The numbers were not newly measured in patent US7838696B2, “Hydroconversion process employing multi-metallic catalysts and method for making thereof” (Chevron U. S. A. Inc., priority 2007, dated 2010), which cites them from elsewhere.

This data set relates to rats. To be noted: rat, in vivo, po.

Structures are written as SMILES.

In general, LD50 refers to the dose at which mortality reaches 50%. `O=CC(=O)O` [glyoxylic, glyoxylic acid]: the LD50 is 3000 mg/kg.
